Reference: patent US6699719B2, “Biosensor arrays and methods” (Proteomic Systems, Inc., priority 1996, dated 2004)

Experiments:
[1] = biological target: T1, CXCR3 (Homo sapiens, UniProt P49682); test: Multiplexed MembraneChip GPCR assay; assay type: binding; conditions: CXCR3 corral; 5 mM propranolol or 15 mM scopolamine
T1 construct: purchased Stratagene (La Jolla, Calif.)
T1 sequence (P49682 1-368): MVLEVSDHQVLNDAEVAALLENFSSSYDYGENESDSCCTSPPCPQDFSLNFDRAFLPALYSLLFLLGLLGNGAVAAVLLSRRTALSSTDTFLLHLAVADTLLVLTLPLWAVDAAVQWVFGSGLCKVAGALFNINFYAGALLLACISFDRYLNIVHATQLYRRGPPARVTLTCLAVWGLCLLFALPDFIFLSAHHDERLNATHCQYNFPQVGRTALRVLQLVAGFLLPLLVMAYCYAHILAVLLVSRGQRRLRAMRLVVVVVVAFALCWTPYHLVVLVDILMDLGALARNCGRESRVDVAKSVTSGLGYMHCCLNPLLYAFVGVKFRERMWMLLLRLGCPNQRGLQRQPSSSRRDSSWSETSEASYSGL

[2] = biological target: T2, AR-β1 (Homo sapiens, UniProt P08588); test: Multiplexed MembraneChip GPCR assay; assay type: binding; conditions: 15 mM scopolamine
T2 construct: purchased Packard BioScience (Meriden, CT) 6110106
T2 sequence (P08588 whole entry): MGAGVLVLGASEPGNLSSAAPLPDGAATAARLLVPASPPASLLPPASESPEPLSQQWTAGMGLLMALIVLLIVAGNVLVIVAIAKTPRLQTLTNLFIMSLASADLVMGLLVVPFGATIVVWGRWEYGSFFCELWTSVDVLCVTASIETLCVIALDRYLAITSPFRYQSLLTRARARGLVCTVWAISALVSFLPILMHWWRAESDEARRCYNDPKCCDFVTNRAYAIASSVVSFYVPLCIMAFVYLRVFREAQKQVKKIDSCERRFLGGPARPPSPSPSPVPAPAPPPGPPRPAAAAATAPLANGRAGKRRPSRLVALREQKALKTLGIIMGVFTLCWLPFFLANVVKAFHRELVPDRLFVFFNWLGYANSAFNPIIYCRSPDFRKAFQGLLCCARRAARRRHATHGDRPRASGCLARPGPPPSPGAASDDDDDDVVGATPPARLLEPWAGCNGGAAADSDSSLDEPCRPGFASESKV

[3] = MembraneChip lipid only control corral probed with fluorescent ligand; assay type: binding; conditions: for difference in BODIPY TMR CGP12177 fluorescence when competitor added: lipid only (negative) corral, 5 mM propranolol or 15 mM scopolamine
[4] = biological target: CXCR4 (Homo sapiens, UniProt P61073); test: Multiplexed MembraneChip GPCR assay; assay type: binding; conditions: CXCR4 corral; 5 mM propranolol or 15 mM scopolamine
Chain of CXCR4 (P61073 whole entry, species assumed): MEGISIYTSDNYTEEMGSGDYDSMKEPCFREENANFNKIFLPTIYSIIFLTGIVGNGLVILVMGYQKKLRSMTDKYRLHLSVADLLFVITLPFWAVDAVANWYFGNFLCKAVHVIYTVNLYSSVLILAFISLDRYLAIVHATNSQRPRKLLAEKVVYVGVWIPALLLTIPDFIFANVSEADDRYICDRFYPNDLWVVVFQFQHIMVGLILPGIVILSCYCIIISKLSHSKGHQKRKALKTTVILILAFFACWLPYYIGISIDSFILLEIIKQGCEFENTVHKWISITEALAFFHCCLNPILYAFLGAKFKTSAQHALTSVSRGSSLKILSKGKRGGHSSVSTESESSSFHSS

[5] = biological target: T3, CXCR1 (Homo sapiens, UniProt P25024); test: Multiplexed MembraneChip GPCR assay; assay type: binding; conditions: CXCR1 corral; 5 mM propranolol or 15 mM scopolamine
T3 construct: purchased Stratagene (La Jolla, Calif.)
T3 sequence (P25024 1-350): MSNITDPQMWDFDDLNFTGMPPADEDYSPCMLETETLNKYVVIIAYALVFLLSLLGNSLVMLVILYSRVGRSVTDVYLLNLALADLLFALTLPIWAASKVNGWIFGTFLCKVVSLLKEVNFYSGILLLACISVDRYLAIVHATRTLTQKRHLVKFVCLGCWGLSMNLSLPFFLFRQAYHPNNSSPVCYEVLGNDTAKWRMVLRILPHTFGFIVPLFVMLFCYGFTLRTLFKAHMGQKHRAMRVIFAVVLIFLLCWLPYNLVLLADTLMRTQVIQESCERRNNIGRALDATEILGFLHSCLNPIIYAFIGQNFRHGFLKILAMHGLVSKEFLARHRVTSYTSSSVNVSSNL

[6] = biological target: CXCR4 (CXC chemokine Receptor 4) (Homo sapiens, UniProt P61073); test: MembraneChip specificity of fluorescent ligand binding against another GPCR; conditions: CXCR4 chip probed with 15 μM BODIPY 558/568 Pirenzepine
Chain of CXCR4 (CXC chemokine Receptor 4) (P61073 whole entry, species assumed): as the sequence (P61073 whole entry, species assumed) above

## CN1[C@@H]2C[C@@H](OC(=O)[C@H](CO)c3ccccc3)C[C@H]1[C@@H]1O[C@@H]12 [scopolamine]
[1]
  difference in BODIPY TMR CGP12177 fluorescence when competitor added: only negligible differences
[2]
  change in fluorescence of BODIPY TMR CGP12177 at AR-β1: Little decrease in fluorescence
[3]
  difference in BODIPY TMR CGP12177 fluorescence when competitor added: only negligible differences
[4]
  difference in BODIPY TMR CGP12177 fluorescence when competitor added: only negligible differences
[5]
  difference in BODIPY TMR CGP12177 fluorescence when competitor added: only negligible differences

## CC(C)NCC(O)COc1cccc2ccccc12 (stereo not shown) [propranolol]
[1]
  difference in BODIPY TMR CGP12177 fluorescence when competitor added: only negligible differences
[3]
  difference in BODIPY TMR CGP12177 fluorescence when competitor added: only negligible differences
[5]
  difference in BODIPY TMR CGP12177 fluorescence when competitor added: only negligible differences

## O=C(CCc1ccc(/C=C2\C=CC(c3cccs3)=N2)n1B(F)F)NCCCCCCN1CCN(CC(=O)N2c3ccccc3C(=O)Nc3cccnc32)CC1 [BODIPY 558/568 Pirenzepine]
[6]
  Relative Fluorescence Units (RFU) ± standard deviation, CXCR4: 8,788 ± 3,137 RFU
[3]; lipid only corral probed with 15 μM BODIPY 558/568 Pirenzepine
  Relative Fluorescence Units (RFU) ± standard deviation, Negative: 2,637 ± 1,846 RFU
